Laboratory results from EPA's ToxValDB 9.5 (doi:10.2903/j.efsa.2010.1873).
Converted amounts (≈) assume the structure as drawn.

Key:
Aphidius rhopalosiphi = assay: LR50; higher = less toxic; conditions: not reported; mortality
Daphnia magna = conditions: chronic/long-term; duration: 21 days; reproduction
Oncorhynchus mykiss = conditions: chronic/long-term; duration: 21 days; mortality
Anas platyrhynchos = conditions: oral, mortality
Landoltia sp. = conditions: acute; duration: 7 days; biomass
Apis mellifera = conditions: acute; duration: 48 hours; oral; unspecified; mortality
Anabaena flosaquae = conditions: acute; duration: 72 hours; biomass
Bibionidae = conditions: chronic/long-term; duration: 28 days; development
Lepomis macrochirus = conditions: acute; duration: 96 hours; mortality
Canidae = conditions: subchronic; duration: 90 days; oral; Dog Other; clinical chemistry
Tagia sp. = conditions: acute, duration: 14 days

| Compound | LR50 (Aphidius rhopalosiphi) [g/ha] | NOEC (Daphnia magna) [mg/L] | NOEC (Oncorhynchus mykiss) [mg/L] | LC50 (Anas platyrhynchos; short-term, feed) [mg/kg-day] | NOEC (Landoltia sp.) [mg/L] | LC50 (Colinus virginianus; acute, oral, diet, mortality) [mg/kg-day] | LD50 (Colinus virginianus; acute, oral, mortality) [mg/kg-day] | NOEC (Colinus virginianus; reproduction developmental) [mg/kg-day] | LD50 (Apis mellifera) [µg/piece] | NOEC (Anabaena flosaquae) [mg/L] | NOEC (Bibionidae) [mg/L] | LC50 (Lepomis macrochirus) [µg/mL] | NOAEL (Canidae) [mg/kg-day] | NOEC (Tagia sp.; body weight) [mg/kg] | LC50 (Tagia sp.; mortality) [mg/kg] | LD50 (Rattus norvegicus; acute, oral, mortality) [mg/kg-day] | NOAEL (Rattus norvegicus; developmental, development) [mg/kg-day] | NOEL (Rattus norvegicus; reproduction developmental, reproduction) [mg/kg-day] | LD50 (Anas platyrhynchos; acute, unspecified) [mg/kg-day] |
| --- | --- | --- | --- | --- | --- | --- | --- | --- | --- | --- | --- | --- | --- | --- | --- | --- | --- | --- | --- |
| N#CN [Cyanamide] | 432 | 0.1 | 3.7 | > 435 | 0.5 | > 1040 | 350 | 13.3 | > 10 | 0.05 | 6.6 | 43.1 (≈ 1030 µM) | 0.6 | 55.7 | > 112 | 223 | 5 | 3.75 | – |
| N#CN=C(N)N [Cyanoguanidine] | – | – | – | – | – | – | – | – | – | – | – | – | – | – | – | – | – | – | > 2000 |
